Experimental findings from US5693844A, “2-cyano-3-hydroxy-propenamides” (Roussel UCLAF, priority 1995, dated 1997) are described below.

Where two headings read alike, the source gives them in different places.

The assay concerns the target T1, human DHO-DH (Homo sapiens, UniProt Q02127).
T1 construct: The spleen tissue was chopped and then homogenized with a teflon glass homogenizer; from tissue; host or cells: human spleen, crude membrane preparation
The experiment in a line: Dihydroorotate Dehydrogenase (DHO-DH) Assay: DCIP-linked inhibition of human spleen membrane DHO-DH. The conditions noted are these: human spleen membranes, 90 min preincubation at 37° C., pH 8.0, 500 μM dihydroorotate, 100 μM coenzyme Q10, 200 μM DCIP, loss of absorbance at 650 nm. The assay is classed as biochemical. An excerpt: Human spleen membrane DHO-DH catalyzed conversion of dihydroorotate to orotate is accompanied by reduction of coenzyme Q10. Reoxidation of coenzyme Q10 is linked to reduction of dichlorophenolindophenol and is monitored as a loss of absorbance at 650 nm. The rate of loss in absorbance is a direct measurement of the rate of the DHO-DH enzyme catalyzed reaction.
Crude membrane preparations were made using a modification of a published differential centrifugation procedure. All procedures were carried out on ice or at a temperature of 4° C. using pre-cooled buffers and equipment.
The spleen tissue was chopped and then homogenized with a teflon glass homogenizer (about 10 passes at 250 rpm) in 10 volumes of a homogenization buffer (10 mM Tris-HCl containing 0.25M sucrose, 10 μg/ml soybean trypsin inhibitor, 2 μg/ml aprotinin, pepstatin A and leupeptin pH 7.4). The homogenate was centrifuged at ^~ 470 g for 10 minutes and the supernatant was saved. Pellets were resuspended in 4-6 volumes of homogenization buffer using 5 passes of the teflon glass homogenizer (250 rpm) and centrifuged for 10 minutes at ^~ 470 g. The supernatant was combined with that from the first centrifugation step (post nuclear fraction) and the pellets containing nuclei and tissue debris were discarded. The post nuclear supernatant was centrifuged at 125,000 g for 40 minutes. The pellets were resuspended in homogenization buffer (2 ml/g wet tissue) using about 10 passes of the teflon glass homogenizer. Aliquots of the preparation were stored at -80° C.
Membranes (0.33-0.5 mg protein) were incubated with 100 μM coenzyme Q10 in 50 mM Tris-HCl, 0.1% Triton X-100, 1 mM KCN pH 8.0. Following a 90 minute preincubation at 37° C., the reaction was initiated by addition of 500 μM of dihydroorotate and the reduction of DCIP (200 μM) was monitored by loss of absorbance at 650 nm using a 96-well plate reader at 37° C. Drug concentrations increased in half log unit or full log unit intervals with each concentration tested at least in triplicate.

T1 sequence (Q02127 whole entry): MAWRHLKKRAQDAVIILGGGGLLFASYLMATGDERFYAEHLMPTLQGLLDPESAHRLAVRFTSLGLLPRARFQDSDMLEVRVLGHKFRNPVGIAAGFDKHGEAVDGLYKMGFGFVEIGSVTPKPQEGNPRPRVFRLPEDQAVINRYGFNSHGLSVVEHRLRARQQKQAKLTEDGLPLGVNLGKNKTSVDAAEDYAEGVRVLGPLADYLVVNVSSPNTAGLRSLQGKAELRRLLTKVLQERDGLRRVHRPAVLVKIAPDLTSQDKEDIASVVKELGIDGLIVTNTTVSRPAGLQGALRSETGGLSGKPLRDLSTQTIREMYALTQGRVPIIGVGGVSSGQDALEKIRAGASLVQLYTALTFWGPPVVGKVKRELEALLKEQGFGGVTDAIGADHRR

`N#Cc1ccc(NC(=O)C(C#N)C(=O)C2CC2)cc1` (stereo not shown) [A]: the 50% inhibitory concentration (IC50) – broadly, the concentration needed to halve the response being measured – (read-out: IC50) was in the range of 1950 to 2100 nM.
Consider `C#CC(=O)C(C#N)C(=O)Nc1ccc(C(F)(F)F)cc1` (stereo not shown) [B], for which the half-maximal inhibitory concentration (IC50) (read-out: IC50) is above 100 nM.
The compound `CC=CC(=O)C(C#N)C(=O)Nc1ccc(C(F)(F)F)cc1` (stereo not shown) [C] gave an IC50 of 79.4 nM.
Regarding `N#CC(C(=O)Nc1ccc([S+]([O-])C(F)(F)F)cc1)=C(O)C1CC1` (stereo not shown) [Example 2, N-(4'-trifluoromethylsulfinyl-phenyl)-2-cyano-3-cyclopropyl-3-hydroxy-prop-2-enamide], the IC50 (read-out: IC50) is 300 nM.
